Results as given in PubChem BioAssay (NCI).
“And” between values parts separate entries of the source, which are not always exact repeats. Equal entries are not always repeated.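 Where inhibition never reached the appropriate level, the endpoint shown equals the highest concentration tested. Otherwise, values were interpolated linearly from a five-concentration, 48-hour dose response in 96-well plates. Here, GI50 denotes the concentration required for 50% inhibition of growth. TGI: concentration producing complete growth inhibition.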

Tests used:
Test in all cases: DTP human tumour cell line panel, 48 h
A549 NSCLC = system: A549 NSCLC
EKVX NSCLC = system: EKVX NSCLC
M14 melanoma = system: M14 melanoma
OVCAR-5 ovarian = system: OVCAR-5 ovarian
SK-MEL-5 melanoma = system: SK-MEL-5 melanoma
SNB-19 CNS = system: SNB-19 CNS
SNB-75 CNS = system: SNB-75 CNS
SW-620 colon = system: SW-620 colon
UACC-62 melanoma = system: UACC-62 melanoma
RPMI-8226 leukemia = system: RPMI-8226 leukemia

SMILES | TGI (A549 NSCLC) | TGI (EKVX NSCLC) | TGI (M14 melanoma) | TGI (OVCAR-5 ovarian) | TGI (SK-MEL-5 melanoma) | TGI (SNB-19 CNS) | TGI (SNB-75 CNS) [µM] | TGI (SW-620 colon) | TGI (UACC-62 melanoma) | GI50 (A549 NSCLC) [µM] | GI50 (M14 melanoma) [µM] | GI50 (OVCAR-5 ovarian) [µM] | GI50 (RPMI-8226 leukemia) | TGI (RPMI-8226 leukemia) | GI50 (SK-MEL-5 melanoma) | GI50 (SNB-19 CNS) [µM] | GI50 (SNB-75 CNS) | GI50 (SW-620 colon) [µM] | GI50 (UACC-62 melanoma) [µM] | GI50 (EKVX NSCLC)
NNC(=O)N/N=C1/C(=O)N(c2ccc(Cl)c(Cl)c2)C(=O)C(=O)C1c1nc2ccccc2o1 (stereo not drawn) | > 100 µM | > 100 µM | > 100 µM | > 100 µM | > 100 µM | > 100 µM | > 100 | > 100 µM | > 100 µM |  |  |  |  |  |  |  |  |  |  | 
COc1cc[nH]c1/C=C1\C(=O)Nc2ccc([N+](=O)[O-])c(N3CC[C@@H](O)C3)c21 | 2.18 µM |  | 1.13 µM | 3.97 µM | 0.847 µM | 5.68 µM | 0.989 | 9.49 µM | 0.762 µM | 0.167 | 0.399 | 0.258 | 0.296 µM | 1.14 µM | 0.181 µM | 0.495 | 0.0931 µM | 0.205 | 0.338 | 
Nc1nc(N)c(-c2ccc(Cl)cc2)c(/C=C/c2ccc([N+](=O)[O-])cc2)n1 | 47.8 µM |  | > 100 µM | > 100 µM | > 100 µM | > 100 µM | 34 | > 100 µM |  | 3.1 | 7.15 | 38.2 | 5.8 µM | > 100 µM | 3.83 µM | 16.1 | 5 µM | 4.08 |  | 
COc1ccc2c(c1)O/C(=C\c1ccc([N+](=O)[O-])s1)C2=O | > 100 µM |  | > 100 µM |  |  | > 100 µM | 39.2 |  |  | 3.46 | 2.89 |  | 1.69 µM | > 100 µM |  | > 22 | 2.36 µM |  |  | 
CCN1C(=O)N(CC)C2C1NN=c1s/c(=C\c3cnc(C)n3C)c(=O)n12 (stereo not drawn) | > 100 µM | > 100 µM |  | > 100 µM | 11.1 µM | > 100 µM | 3.44 | > 100 µM | 88 µM | 3.99 |  | 3.68 | 3.47 µM | > 100 µM | 1.2 µM | 3.94 | 0.324 µM | 2.01 | 1.14 | 3.65 µM
CCOc1ccccc1NC(=O)C(=O)c1c(O)c2ccc(O)cc2oc1=O | > 100 µM | > 100 µM | > 100 µM | > 100 µM | > 100 µM | > 100 µM | > 100 | > 100 µM | > 100 µM |  |  |  |  |  |  |  |  |  |  | 
CCCNC(=O)Nc1ccc2c(c1)Cc1cc(N(CCCl)CCCl)ccc1-2 | > 100 µM | 77.4 µM | > 100 µM | > 100 µM | 33 µM | 94.8 µM |  | > 100 µM | > 100 µM |  |  |  |  | > 100 µM |  |  |  |  |  | 
C=C1CC(CC(=O)C(C)CC2CC(=C)C(=O)O2)OC1=O (stereo not drawn) | > 100 µM | > 100 µM | 30 µM | > 100 µM | > 100 µM | > 100 µM | > 100 | 24.2 µM | 30.1 µM |  |  |  |  |  |  |  |  |  |  | 
C[C@H](CCCOS(C)(=O)=O)[C@H]1CC[C@H]2[C@@H]3CC[C@@H]4C[C@H](OS(C)(=O)=O)CC[C@]4(C)[C@H]3CC[C@]12C |  | > 2500 µM | > 2500 µM | > 2500 µM | > 2500 µM | > 2500 µM |  | > 2500 µM |  | 793 | 706 | 391 | 69.9 µM | 1260 µM | 1110 µM | 929 |  | > 2500 | 710 | 865 µM
CC(=O)CC(=O)ON(C)C(=O)Cc1ccccc1 | > 100 µM |  | > 100 µM | > 100 µM | > 100 µM | > 100 µM | > 100 | > 100 µM | > 100 µM |  |  |  |  | > 100 µM |  |  |  |  |  | 
Cc1c(C(=O)Nc2ccc(Cl)cc2)nc(N)nc1-c1cccc(Cl)c1 | > 100 µM | > 100 µM | > 100 µM | > 100 µM | > 100 µM | > 100 µM |  | > 100 µM | > 100 µM |  |  |  |  |  |  |  |  |  |  | 
CC1CCC2[C@@H](C)COC3O[C@]4(C)CCC1C32OO4 (stereo partly drawn) | > 100 µM | > 100 µM | > 100 µM | > 100 µM | > 100 µM | > 100 µM | > 100 | > 100 µM | > 100 µM |  |  |  |  |  |  |  |  |  |  | 
CCC12C=CCN3CCC4(C(=C(C(=O)OC)C1)Nc1ccccc14)[C@H]32 (stereo partly drawn) | > 100 µM | > 100 µM | 50.8 µM | > 100 µM | > 100 µM | 75 µM | 69 | 86 µM | 67.6 µM |  |  |  |  |  |  |  |  |  |  | 
COc1ccc([Se]c2ccc(OC)cc2)cc1 | > 100 µM |  | > 100 µM |  | > 100 µM | > 100 µM | 96.8 | > 100 µM | > 100 µM |  |  |  |  | > 100 µM |  |  |  |  |  | 
COc1cc(OC)c2c(c1Cl)O[C@]1(C2=O)C(OCc2ccccc2)=CC(=O)C[C@H]1C | > 100 µM |  | 40.5 µM | > 100 µM | 11.8 µM | 98.8 µM | 27.4 | > 100 µM | 18.6 µM | 0.769 | 0.612 | 1.83 | 1.13 µM | 17 µM | 1.15 µM | 5.68 | 0.936 µM | 0.641 | 0.72 | 
NC(=S)N=Nc1c(O)[nH]c2ccccc12 | 897 µM | 318 µM |  |  | 651 µM | 722 µM | 419 | > 1000 µM | 497 µM | 274 |  |  | 194 µM | 708 µM | 55.5 µM and 201 µM | 262 | 91.7 µM and 174 µM | 474 | 209 | 19.2 µM and 123 µM
CCC(=O)OCN1C(=O)C=CC1=O | 39.9 µM and 34.9 µM | 32.4 µM and 42.5 µM | 37.5 µM and 32.3 µM | 32.9 µM and 33.1 µM | 42.5 µM and > 58.1 µM | > 100 µM and 32.5 µM |  | 3.58 µM and 4.43 µM | 31.8 µM and 30.7 µM |  |  |  | 19.3 µM and 4.42 µM | 56.2 µM and 13.5 µM | 18.9 µM | > 100 |  |  |  | 16.8 µM
CCc1cccc(CC)c1NC(=O)C1=CNC(C)=C(C(=O)Nc2c(CC)cccc2CC)C1c1ccc(O)c(OC)c1 (stereo not drawn) | > 100 µM | > 100 µM | > 100 µM | > 100 µM | > 100 µM | > 100 µM | > 100 | > 100 µM |  |  |  |  |  | 45.3 µM |  |  |  |  |  | 
